Experimental data from article PMC6369212, “Cytochrome P450 3A Enzymes Are Key Contributors for Hepatic Metabolism of Bufotalin, a Natural Constitute in Chinese Medicine Chansu” (Frontiers in Pharmacology, 2019).
Values joined by “and” are separate entries in the source; they are usually repeats but may differ in a detail not shown here. Identical values can stand only once.

Tests used:
HLM [1] = assay: Material balance of BFT and its metabolite in HLM; format: in vitro ADME, human
Procedure: A single metabolite of BFT was identified following incubation with HLM (0.3 mg protein/ml) in the presence of the NADPH-generating system (Figure 1). […] The metabolite was characterized by UFLC-DAD-ESI-MS, and the formation of monohydroxylbufotalin was NADPH-, time-, and microsome-dependent. […] The [M+H]^+ and [M+CH3CN+H]^+ ion of the metabolite at m/z in HLM were 461.3 and 502.4, respectively.

in vitro = details: human; for Km: pH 7.4, Km, BFT 5β-hydroxylation, HLM 0.25 mg protein/mL, 30 min, biphasic kinetics
Procedure: (§1) Human liver microsomes or CYPs were incubated with NADPH-generating system, which included NADP^+ (1 mM), glucose-6-phosphate (10 mM), glucose-6-phosphate dehydrogenase (1 unit/ml), and 4 mM MgCl2 in 100 mM potassium phosphate buffer (pH 7.4) in a total incubation volume of 200 μl. After a 3 min preincubation at 37°C, the reaction was initiated by the addition of NADPH-generating system and further incubated at 37°C for 30 min. The reaction was quenched with 100 μl of ice-cold acetonitrile. The samples were chilled, spun at 20,000 × g for 20 min at 4°C. Aliquots of supernatants were then stored at -20°C until analysis. All incubations throughout the study were done in three experiments conducted in duplicate with S.D. values generally below 10%.
(§2) The formation rates of 5-HBFT was within the linear range of the incubation time and protein concentration. […] BFT was incubated with pooled HLM (0.25 mg protein/mL) for 30 min, or with recombinant CYP3A4 (5 nM) and CYP3A5 (10 nM) for 30 min. […] The kinetic constants were calculated with GraphPad Prism software, version 6.0, and the results were graphically represented by Eadie–Hofstee plots.
(§3) (1) v=Vmax 1[S]/Kmax 1+[S]+Vmax 2[S]/Kmax 2+[S]
(§4) where v is the rate of the reaction, [S] is the substrate concentration, Vmax is the maximum velocity estimate, Km is the substrate affinity constant.
(§5) Km values are μM, Vmax values were in nmol/min/mg protein for liver microsomes, or in nmol/min/nmol CYP for CYP3A. […] Each value was the mean ± S.D. of three determinations performed in duplicate.

[2] = system: BFT 5β-hydroxylation in pooled HLM; assay: Chemical inhibition of BFT 5β-hydroxylation by selective CYP inhibitors in HLM; format: in vitro ADME, human; details: BFT 10 μM, HLM 0.25 mg protein/ml
Procedure: as §1

[3] = system: CC(=O)O[C@H]1C[C@]2(O)[C@@H]3CC[C@@H]4C[C@@H](O)CC[C@]4(C)[C@H]3CC[C@]2(C)[C@H]1c1ccc(=O)oc1; assay: cells, lysate or membranes named; details: other: CYP3A5 10 nM, 30 min, substrate inhibition kinetics; pH 7.4; 37.0 °C
Procedure: as §1
(§6) BFT was incubated with pooled HLM (0.25 mg protein/mL) for 30 min, or with recombinant CYP3A4 (5 nM) and CYP3A5 (10 nM) for 30 min. […] The kinetic constants were calculated with GraphPad Prism software, version 6.0, and the results were graphically represented by Eadie–Hofstee plots.
(2) v=Vmax/1+(Km/[S])+([S]/Ksi)
(§7) where Ksi is the substrate inhibition constant.
as §5

other P450 isoforms = assay: Reaction phenotyping of BFT hydroxylation with other recombinant P450 isoforms; format: in vitro ADME, human; details: BFT 3 and 100 μM, isoforms other than CYP3A4 and CYP3A5
Source text: BFT and BF were purchased from Shanghai Winherb Medical Technology Company (Shanghai, China). ABT, furafylline, sulfaphenazole, clomethiazole, omeprazole, 8-methoxypsoralen, ticlopidine, CYP3cide, glucose-6-phosphate dehydrogenase, D-glucose-6-phosphate, and NADP^+ were obtained from Sigma (St. Louis, MO, United States). Montelukast, quinidine, ketoconazole was purchased from Jianglai Biotechnology Co., Ltd. (Shanghai, China). The pooled HLMs (from 50 donors, lot no. X008067) were obtained from BioreclamationIVT (Baltimore, MD, United States). A panel of baculovirus expressed human P450s (CYP1A1, 1A2, 2A6, 2A13, 2B6, 2C8, 2C9, 2C19, 2D6, 2E1, 3A4, 3A5, 4F2, and 4F3), co-expressing NADPH-CYP reductase and cytochrome b5 were obtained from BD Gentest Corp (Woburn, MA, United States). All chemicals and solvents were of analytical grade.
[…] cDNA-expressed human P450 isoforms co-expressing NADPH-P450 reductase were used for assay of BFT hydroxylation activity.

recombinant human CYP3A4 = recombinant human CYP3A4 (Homo sapiens, UniProt P08684); assay: Kinetic analysis of 5β-hydroxylation in recombinant CYP3A4
Procedure: as §1, §2, §3, §4, §5

HLM [4] = system: HLM
Procedure: as §1, §2, §3, §4, §5

recombinant human CYP3A5 = recombinant human CYP3A5 (Homo sapiens, UniProt P20815); assay: Kinetic analysis of 5β-hydroxylation in recombinant CYP3A5
Procedure: as §1, §6
(2) v=Vmax/1+(Km/[S])+([S]/Ksi)
as §7, §5

[5] = CYP3A4 5 nM, 30 min, biphasic kinetics
[6] = HLM 0.25 mg protein/mL, 30 min, biphasic kinetics
[7] = CYP3A5 10 nM, 30 min, substrate inhibition kinetics

Chain of recombinant human CYP3A5 (P20815 whole entry): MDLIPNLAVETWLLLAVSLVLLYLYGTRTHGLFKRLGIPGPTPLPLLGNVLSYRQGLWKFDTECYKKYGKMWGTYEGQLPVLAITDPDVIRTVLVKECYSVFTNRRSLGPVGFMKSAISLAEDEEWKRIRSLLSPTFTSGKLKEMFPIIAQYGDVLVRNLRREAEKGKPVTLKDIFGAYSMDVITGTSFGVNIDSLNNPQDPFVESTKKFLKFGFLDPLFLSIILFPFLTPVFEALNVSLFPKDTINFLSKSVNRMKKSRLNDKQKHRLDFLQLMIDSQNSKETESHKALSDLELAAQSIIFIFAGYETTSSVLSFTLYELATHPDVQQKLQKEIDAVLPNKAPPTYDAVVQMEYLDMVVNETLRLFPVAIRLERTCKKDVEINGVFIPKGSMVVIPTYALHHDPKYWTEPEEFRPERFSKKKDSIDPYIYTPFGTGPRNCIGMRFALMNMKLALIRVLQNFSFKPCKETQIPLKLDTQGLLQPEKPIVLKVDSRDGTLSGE
Chain of recombinant human CYP3A4 (P08684 2-503 limits assumed): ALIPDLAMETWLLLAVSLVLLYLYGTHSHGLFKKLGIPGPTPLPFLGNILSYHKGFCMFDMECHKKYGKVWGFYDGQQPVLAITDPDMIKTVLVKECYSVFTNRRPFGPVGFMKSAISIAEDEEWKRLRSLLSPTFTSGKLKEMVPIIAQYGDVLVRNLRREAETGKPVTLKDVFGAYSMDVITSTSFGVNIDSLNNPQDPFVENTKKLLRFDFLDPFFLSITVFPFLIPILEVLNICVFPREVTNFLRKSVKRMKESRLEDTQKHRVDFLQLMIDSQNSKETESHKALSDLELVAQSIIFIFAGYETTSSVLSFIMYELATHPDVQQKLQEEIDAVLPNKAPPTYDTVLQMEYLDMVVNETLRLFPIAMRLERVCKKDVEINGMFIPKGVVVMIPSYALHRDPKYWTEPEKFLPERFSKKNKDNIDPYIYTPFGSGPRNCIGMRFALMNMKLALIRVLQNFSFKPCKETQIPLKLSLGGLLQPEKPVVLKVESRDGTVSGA

CC(=O)OC1CC2(O)C3CCC4(O)CC(O)CCC4(C)C3CCC2(C)C1c1ccc(=O)oc1 (stereo not drawn) [5-HBFT, 5β-hydroxylbufotalin]
Compound (%), material balance (HLM [1]; time 0 min): 0%
Compound (%), material balance (HLM [1]; time 30 min): 11.1392%
Compound (%), material balance (HLM [1]; time 60 min): 24.5928%

C[C@]12CC[C@H](O)C[C@H]1CC[C@@H]1[C@@H]2CC[C@]2(C)[C@@H](c3ccc(=O)oc3)CC[C@]12O [BF, bufalin, reference compound]
Km at 30 min (in vitro; pH 7.4): 8 ± 0.52 µM

Cc1ccc(-c2c(-c3nn(C)c4ncnc(N5CC[C@H](N6CCCCC6)C5)c34)cnn2C)cc1 [CYP3cide]
inhibition of 5-HBFT formation in HLM [2]: ~90%

recombinant human CYP3A5 (Homo sapiens)
Km [3]: 2.91 ± 0.24 µM
kcat [3]: 3.45 ± 0.09 nmol/min per nanomole P450

CC(=O)O[C@H]1C[C@]2(O)[C@@H]3CC[C@@H]4C[C@@H](O)CC[C@]4(C)[C@H]3CC[C@]2(C)[C@H]1c1ccc(=O)oc1 [BFT, bufotalin]
metabolite formation by other P450 isoforms (other P450 isoforms): no metabolites were detected
Vmax, high-affinity site (Vmax1), BFT 5β-hydroxylation (recombinant human CYP3A4; [5]): 6.87 per min/nmol P450 and 6.87 ± 3.59 per min/nmol P450
Vmax, low-affinity site (Vmax2), BFT 5β-hydroxylation (recombinant human CYP3A4; [5]): 33.70 per min/nmol P450 and 33.70 ± 3.08 per min/nmol P450
kinetic behavior of BFT 5β-hydroxylation (recombinant human CYP3A4; CYP3A4, Eadie–Hofstee plot): biphasic kinetics
Compound (%), material balance (HLM [1]; time 0 min): 99.5%
Compound (%), material balance (HLM [1]; time 30 min): 88.0247%
Compound (%), material balance (HLM [1]; time 60 min): 73.5708%
Vmax, high-affinity site (Vmax1), BFT 5β-hydroxylation (HLM [4]; [6]): 33.31 per min/mg and 33.31 ± 12.64 per min/mg
Vmax, low-affinity site (Vmax2), BFT 5β-hydroxylation (HLM [4]; [6]): 107.30 per min/mg and 107.30 ± 11.77 per min/mg
kinetic behavior of BFT 5β-hydroxylation (HLM [4]; HLM, Eadie–Hofstee plot): biphasic kinetics
Km (in vitro; high-affinity site (Km1)): 3.71 ± 2.68 µM
Km (in vitro; low-affinity site (Km2)): 134 ± 72.2 µM
CLint, BFT 5β-hydroxylation (recombinant human CYP3A5; CYP3A5): 1186.12
Ksi (substrate inhibition constant), BFT 5β-hydroxylation (recombinant human CYP3A5; [7]): 170.00 ± 12.69 µM
Vmax, BFT 5β-hydroxylation (recombinant human CYP3A5; [7]): 3.45 nmol/min per nanomole P450
kinetic behavior of BFT 5β-hydroxylation (recombinant human CYP3A5; CYP3A5, Eadie–Hofstee plot): substrate inhibition kinetic

Nn1nnc2ccccc21 [ABT, 1-aminobenzotriazole]
inhibition of 5-HBFT formation in HLM [2]: completely
